Assay results as given in BindingDB's records for PubMed 1513320 (Synaptic Pharmaceutical, 1992).

Molecular target: 5-hydroxytryptamine receptor 1E (Homo sapiens, UniProt P28566)
Sequence (P28566 whole entry): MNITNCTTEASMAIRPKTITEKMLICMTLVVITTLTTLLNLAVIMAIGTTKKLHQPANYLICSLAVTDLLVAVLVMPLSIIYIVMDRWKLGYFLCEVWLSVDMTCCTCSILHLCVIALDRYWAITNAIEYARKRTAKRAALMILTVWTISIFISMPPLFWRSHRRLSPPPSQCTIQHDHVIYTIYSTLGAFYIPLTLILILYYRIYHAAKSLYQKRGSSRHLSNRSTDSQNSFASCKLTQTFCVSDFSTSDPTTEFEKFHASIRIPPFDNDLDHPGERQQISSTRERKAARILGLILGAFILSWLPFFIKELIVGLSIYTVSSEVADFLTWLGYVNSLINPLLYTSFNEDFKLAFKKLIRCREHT

With `O=C(c1ccc(F)cc1)C1CCN(CCn2c(=O)[nH]c3ccccc3c2=O)CC1` [3-(2-{4-[(4-fluorophenyl)carbonyl]piperidin-1-yl}ethyl)-1,2,3,4-tetrahydroquinazoline-2,4-dione] the Ki was > 10 µM.

`Cn1cc(CCN)c2cc(O)ccc21` [5-HT,omega-N-Me] was tested, and the Ki was 0.121 µM.

`CC(CO)NC(=O)C1C=C2c3cccc4[nH]cc(c34)CC2N(C)C1` (stereo not drawn) [CAS_60-79-7] was tested, and the Ki was 0.088 µM.

`CCC(=O)c1ccc(N)cc1` [CAS_6270] was tested, and the Ki was > 10 µM.

With `CC(C)NCC(O)COc1cccc2[nH]ccc12` (stereo not drawn) [LB-46] the Ki was > 10 µM.

For `COc1cc(N)c(Cl)cc1C(=O)NC1CN2CCC1CC2` (stereo not drawn) [ZACOPRIDE,R], the Ki was > 10 µM.

For `NCCc1c[nH]c2ccc(C(N)=O)cc12` [[3H]-5-carboxamidotryptamine], the Ki was > 10 µM.

Compound `COC(=O)[C@@H]1[C@H]2C[C@H]3c4[nH]c5ccccc5c4CCN3C[C@@H]2CC[C@@H]1O` [yohimbic acid methyl ester] has a Ki of 3.43 µM.
